# Experimental data: patent publication US8691865B2 (AbbVie Inc., priority 2008, dated 2014)
# Legend:
# human Cav2.2 = human Cav2.2 (Homo sapiens, UniProt Q00975); experiment: Assessment of calcium channel activity using FLIPR (Ca2+ influx in IMR32 cells); format: cell-based
# In short: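 IC50 values derive from nonlinear sigmoidal fitting of percent inhibition, relative to inhibitor-free activity, of Ca2+ influx read by FLIPR. Cells were IMR32 human neuroblastoma, plated at 1−1.2×10^5 per well and grown 48 h at 37 °C.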
# Sprague Dawley rats [1] = experiment: Capsaicin induced secondary mechanical hyperalgesia model; format: in vivo; details: po, 1 h, read-out: % inhibition @ 30 mg/kg p.o.; 30 mg/kg p.o. 60 minutes before testing; SMH measured 180 minutes after capsaicin; rat
# Experimental: (ii) In Vivo Data—Capsaicin Induced Secondary Mechanical Hyperalgesia Model:
# Sprague Dawley rats were briefly restrained, and capsaicin was administered at 10 μg in 10 μL of vehicle by intraplantar injection into the center of the right hind paw. Secondary mechanical hyperalgesia (SMH) was measured at the heel away from the site of injection 180 minutes following capsaicin exposure. Compounds and gabapentin (positive control), were administered p.o. 60 minutes before testing (2 hours after capsaicin) or i.p. 30 minutes before testing (2.5 hours after capsaicin). SMH was measured using calibrated von Frey filaments (Stoelting, Woodale, Ill.). Following the 1 hour habituation in the testing room, rats were moved to individual plexiglass chambers that sit on top of a wire mesh to allow for access for stimulation of the plantar surface of the hind paws. Rats were allowed to acclimate to the new chambers for 15 minutes before the onset of testing. The paw withdrawal threshold was determined by increasing and decreasing stimulus intensity (force: g) and calculated using Dixon's up-down method (Chaplan, S. R.; Bach, F. W.; Pogrel, J. W.; Chung, J. M.; Yaksh, T. L.; J. Neuroscience Methods 1994, 53(1), 55-63.). The filaments (maximum force of 15.0 g) were held in place for 8 seconds or until there was a withdrawal response from the mechanical stimulation.
# Sprague Dawley rats [2] = experiment: Analgesic effect against neuropathic pain, Bennett model (chronic constriction injury); format: in vivo; details: Rattus norvegicus, 1 h; 30 mg/kg po; mechanical allodynia 60 minutes after administration; CCI rats; read-out: % MPE
# Experimental: (iii) In Vivo Data—Determination of Analgesic Effect Against Neuropathic Pain—Bennett Model
# Animals were prepared for testing, by use of a surgical procedure that induces neuropathic pain in one paw. IACUC guidelines for rodent survival surgery are followed. All surgical procedures are conducted on a clean, uncluttered surgical station. The area is wiped with a 70% ethanol solution before and after use. All instruments are sterilized by either autoclave or chemical sterilant (such as 2% glutaraldehyde >10 hr). Surgeons wear sterile gloves (for the initial procedure), clean lab coat or scrubs, hairnet or cap, and a half-mask respirator (when not working under a hood). Surgeons thoroughly wash their hands prior to donning sterile gloves. Gloves are disinfected in-between animals by cleansing with povidone iodine, chlorhexidine or 70% alcohol for at least 30 seconds. If multiple surgeries are performed, the instruments are cleaned and sterilized between procedures with hot glass beads (>10 seconds). To prevent thermal or chemical burns, the instruments are cooled by rinsing in sterile saline before use.
# To minimize post-operative dehydration/maintain blood volume during the surgery, warmed sterile saline or Lactate Ringers solution at 10-15 mL/kg is administered subcutaneously immediately before or after surgery. This facilitates better renal function and presumably anesthesia product excretion post surgery. For all surgical procedures, anesthesia is induced with 4-5% isoflurane. Anesthesia is be maintained during surgery with 1-3% isoflurane. Following induction, the surgical site is carefully shaved and the exposed area is aseptically prepared with povidone-iodine scrub solution and 70% ethanol 2-3 times.
# After site sterilization and anesthetic procedures outline above are completed, a 1.5 cm incision is made at the mid-thigh level to expose the biceps femoris and gluteous superficialis (right side), which are then separated by blunt dissection. The common sciatic nerve is exposed, isolated, and loosely ligated by four 5-0 chromic gut ligatures with <1 mm spacing between each. The surgical site is closed in layers—muscle is closed with 6.0 absorbable sutures, and the skin closed with wound clips. Animals are allowed to recover on a warming plate and are returned to their home cages when fully ambulatory. Animals are not be used for testing until at least 10 days following surgery.
# Filament strengths used are: 0.4, 0.6, 1.0, 2, 4, 6, 8, and 15 g. […] Filaments are applied perpendicular to the mid-plantar paw surface with enough force to cause slight buckling and held in place for 6-8 seconds. Positive responses include an abrupt withdrawal of the paw from the stimulus or flinching behavior immediately following removal of the stimulus. The maximum force applied will be 15 g. […] All compounds were orally administered in 10% dimethyl sulfoxide/polyethylene glycol at a volume of 2.0 mL/kg, and mechanical allodynia was determined 60 minutes following compound administration. Data are reported as log g values and the percentage of maximum possible effect (% MPE) is calculated using log g values with the formula: % MPE=(log [observed PWT in grams]−log [mean PWT vehicle])/(log [15]−log [mean PWT vehicle])*100 All statistical procedures are run on log g values.
# Chain of human Cav2.2 (Q00975 whole entry): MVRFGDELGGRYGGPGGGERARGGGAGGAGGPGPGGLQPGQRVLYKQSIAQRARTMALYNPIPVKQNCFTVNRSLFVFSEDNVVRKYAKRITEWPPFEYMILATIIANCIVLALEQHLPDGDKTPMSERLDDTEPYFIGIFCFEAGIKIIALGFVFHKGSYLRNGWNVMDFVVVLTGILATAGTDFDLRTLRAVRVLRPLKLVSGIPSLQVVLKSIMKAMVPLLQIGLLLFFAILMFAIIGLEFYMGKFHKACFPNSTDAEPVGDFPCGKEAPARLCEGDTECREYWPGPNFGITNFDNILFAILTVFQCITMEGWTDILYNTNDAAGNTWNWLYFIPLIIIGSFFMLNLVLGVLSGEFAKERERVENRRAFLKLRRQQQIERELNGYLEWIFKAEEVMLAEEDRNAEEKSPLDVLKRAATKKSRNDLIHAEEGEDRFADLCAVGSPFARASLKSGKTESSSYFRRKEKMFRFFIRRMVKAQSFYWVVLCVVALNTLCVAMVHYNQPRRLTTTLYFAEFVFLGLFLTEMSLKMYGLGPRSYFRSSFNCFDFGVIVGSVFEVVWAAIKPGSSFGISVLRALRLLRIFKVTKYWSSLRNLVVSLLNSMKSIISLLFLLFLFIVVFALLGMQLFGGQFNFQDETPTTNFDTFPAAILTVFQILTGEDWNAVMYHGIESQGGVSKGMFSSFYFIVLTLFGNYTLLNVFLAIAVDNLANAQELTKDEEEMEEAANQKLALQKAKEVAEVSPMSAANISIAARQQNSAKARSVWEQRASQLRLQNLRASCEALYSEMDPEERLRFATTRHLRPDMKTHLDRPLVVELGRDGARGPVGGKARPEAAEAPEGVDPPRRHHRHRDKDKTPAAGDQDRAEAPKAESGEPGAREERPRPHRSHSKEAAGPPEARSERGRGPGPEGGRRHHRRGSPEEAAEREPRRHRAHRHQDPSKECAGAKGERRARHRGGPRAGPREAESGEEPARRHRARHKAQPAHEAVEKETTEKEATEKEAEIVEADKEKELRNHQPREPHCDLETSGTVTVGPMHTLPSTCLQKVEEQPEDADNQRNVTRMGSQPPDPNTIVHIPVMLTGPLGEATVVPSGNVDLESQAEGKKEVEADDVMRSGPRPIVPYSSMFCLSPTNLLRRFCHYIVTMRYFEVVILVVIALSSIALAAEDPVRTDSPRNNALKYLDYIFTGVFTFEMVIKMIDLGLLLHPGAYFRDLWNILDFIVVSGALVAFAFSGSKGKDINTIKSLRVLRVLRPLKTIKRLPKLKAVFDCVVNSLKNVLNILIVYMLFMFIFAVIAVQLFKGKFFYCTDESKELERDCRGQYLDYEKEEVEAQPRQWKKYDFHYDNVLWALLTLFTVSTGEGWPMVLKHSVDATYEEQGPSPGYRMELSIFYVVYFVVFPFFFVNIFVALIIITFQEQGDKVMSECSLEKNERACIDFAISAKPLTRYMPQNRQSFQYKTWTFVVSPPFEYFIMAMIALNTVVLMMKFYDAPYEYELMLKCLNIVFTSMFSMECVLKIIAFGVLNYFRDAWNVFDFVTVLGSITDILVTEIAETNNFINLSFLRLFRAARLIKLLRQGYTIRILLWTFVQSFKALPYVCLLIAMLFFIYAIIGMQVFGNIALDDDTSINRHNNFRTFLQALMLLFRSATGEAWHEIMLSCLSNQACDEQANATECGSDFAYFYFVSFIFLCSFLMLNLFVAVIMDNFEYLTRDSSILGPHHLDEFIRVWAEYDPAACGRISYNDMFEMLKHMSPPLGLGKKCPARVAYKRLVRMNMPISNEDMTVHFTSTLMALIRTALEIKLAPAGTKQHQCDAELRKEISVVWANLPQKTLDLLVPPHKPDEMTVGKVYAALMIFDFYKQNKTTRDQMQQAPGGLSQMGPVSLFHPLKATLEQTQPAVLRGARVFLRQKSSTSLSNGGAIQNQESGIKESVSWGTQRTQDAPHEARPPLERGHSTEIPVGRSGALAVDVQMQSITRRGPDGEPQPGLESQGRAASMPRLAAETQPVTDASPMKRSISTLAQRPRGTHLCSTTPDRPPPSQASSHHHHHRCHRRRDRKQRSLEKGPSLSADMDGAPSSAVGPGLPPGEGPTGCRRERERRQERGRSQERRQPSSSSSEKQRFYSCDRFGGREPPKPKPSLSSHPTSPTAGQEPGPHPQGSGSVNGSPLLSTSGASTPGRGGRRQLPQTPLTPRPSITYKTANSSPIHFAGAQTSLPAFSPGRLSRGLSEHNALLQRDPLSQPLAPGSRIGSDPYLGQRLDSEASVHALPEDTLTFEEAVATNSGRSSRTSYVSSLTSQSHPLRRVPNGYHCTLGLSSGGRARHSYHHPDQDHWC
# Chain of human Cav2.2 (P54289 25-956 partner limits assumed): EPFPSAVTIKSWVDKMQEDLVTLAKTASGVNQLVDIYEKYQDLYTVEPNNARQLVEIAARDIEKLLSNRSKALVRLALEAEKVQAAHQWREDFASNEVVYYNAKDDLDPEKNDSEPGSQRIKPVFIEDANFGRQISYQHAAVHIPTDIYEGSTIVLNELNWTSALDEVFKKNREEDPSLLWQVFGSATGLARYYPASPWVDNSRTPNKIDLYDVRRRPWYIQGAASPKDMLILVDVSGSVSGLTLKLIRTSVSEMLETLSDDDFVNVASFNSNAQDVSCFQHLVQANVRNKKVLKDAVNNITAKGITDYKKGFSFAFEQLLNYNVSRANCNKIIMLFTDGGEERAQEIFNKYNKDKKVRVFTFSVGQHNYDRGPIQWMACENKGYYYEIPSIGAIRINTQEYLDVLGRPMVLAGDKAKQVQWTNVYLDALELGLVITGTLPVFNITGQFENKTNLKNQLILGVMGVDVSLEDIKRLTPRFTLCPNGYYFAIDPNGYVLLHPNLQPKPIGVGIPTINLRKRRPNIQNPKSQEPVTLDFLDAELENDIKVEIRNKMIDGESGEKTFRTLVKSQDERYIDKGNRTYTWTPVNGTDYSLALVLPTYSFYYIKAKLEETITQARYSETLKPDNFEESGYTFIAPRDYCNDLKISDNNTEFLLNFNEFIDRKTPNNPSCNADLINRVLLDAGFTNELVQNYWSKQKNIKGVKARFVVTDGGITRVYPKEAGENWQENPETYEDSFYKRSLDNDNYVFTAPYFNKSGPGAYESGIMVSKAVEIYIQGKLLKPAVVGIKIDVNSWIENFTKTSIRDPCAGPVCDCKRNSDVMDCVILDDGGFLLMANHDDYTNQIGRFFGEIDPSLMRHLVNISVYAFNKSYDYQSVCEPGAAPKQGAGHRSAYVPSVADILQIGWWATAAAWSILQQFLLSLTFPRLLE
# Chain of human Cav2.2 (P54289 957-1103 partner limits assumed): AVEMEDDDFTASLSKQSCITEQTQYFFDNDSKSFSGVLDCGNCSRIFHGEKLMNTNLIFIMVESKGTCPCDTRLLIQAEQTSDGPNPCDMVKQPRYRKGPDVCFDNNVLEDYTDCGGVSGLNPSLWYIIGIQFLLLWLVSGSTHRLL
# Chain of human Cav2.2 (P54284 whole entry partner): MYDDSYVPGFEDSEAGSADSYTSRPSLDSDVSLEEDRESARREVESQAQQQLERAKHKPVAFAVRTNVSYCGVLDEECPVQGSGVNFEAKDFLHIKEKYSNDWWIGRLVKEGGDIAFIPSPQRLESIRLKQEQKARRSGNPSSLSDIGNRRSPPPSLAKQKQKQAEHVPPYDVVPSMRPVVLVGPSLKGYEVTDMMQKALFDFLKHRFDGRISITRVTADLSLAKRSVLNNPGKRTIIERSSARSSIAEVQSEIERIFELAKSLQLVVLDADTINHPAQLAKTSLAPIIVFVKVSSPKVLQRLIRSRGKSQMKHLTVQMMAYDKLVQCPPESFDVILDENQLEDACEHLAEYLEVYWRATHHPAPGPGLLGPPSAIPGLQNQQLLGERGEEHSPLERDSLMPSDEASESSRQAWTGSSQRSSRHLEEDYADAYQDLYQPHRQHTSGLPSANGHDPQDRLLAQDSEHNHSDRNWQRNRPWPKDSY
Compound,IC50 (human Cav2.2),inhibition in vivo at 30 mg/kg (Sprague Dawley rats [1]),inhibition in vivo at 30 mg/kg (Sprague Dawley rats [2])
"O=C(N[C@H]1CC[C@@H]2CN(c3cccc(C(F)(F)F)n3)C[C@@H]21)[C@@H]1C[C@@H]2CCCC[C@@H]2N1 [Example 593, (2S,3aS,7aS)-N-{(3aR,4S,6aS)-2-[6-(trifluoromethyl)pyridin-2-yl]octahydrocyclopenta[c]pyrrol-4-yl}octahydro-1H-indole-2-carboxamide]",520 nM,76%,–
"Fc1ccc2[nH]c(CN[C@H]3CC[C@@H]4CN(c5cccc(C(F)(F)F)n5)C[C@@H]43)cc2c1 [Example 613, (3aR,4S,6aS)-N-[(5-fluoro-1H-indol-2-yl)methyl]-2-[6-(trifluoromethyl)pyridin-2-yl]octahydrocyclopenta[c]pyrrol-4-amine]",910 nM,–,61%
"O=C(N[C@H]1CC[C@@H]2CN(c3cccc(C(F)(F)F)n3)C[C@@H]21)[C@@H]1C[C@@H](F)CN1 [Example 592, (4R)-4-fluoro-N-{(3aR,4S,6aS)-2-[6-(trifluoromethyl)pyridin-2-yl]octahydrocyclopenta[c]pyrrol-4-yl}-L-prolinamide]",4500 nM,54%,–
"O=C(N[C@H]1CC[C@@H]2CN(c3cccc(C(F)(F)F)n3)C[C@@H]21)[C@@H]1CCCN1 [Example 598, N-{(3aR,4S,6aS)-2-[6-(trifluoromethyl)pyridin-2-yl]octahydrocyclopenta[c]pyrrol-4-yl}-L-prolinamide]",2570 nM,54%,–
"CN[C@@H](CC(C)C)C(=O)N[C@H]1CC[C@@H]2CN(c3ccc(C(F)(F)F)cc3)C[C@@H]21 [Example 608, N^2-methyl-N-{(3aR,4S,6aS)-2-[4-(trifluoromethyl)phenyl]octahydrocyclopenta[c]pyrrol-4-yl}-L-leucinamide]",1650 nM,–,79%
"CN[C@@H](CC(C)(C)C)C(=O)N[C@H]1CC[C@@H]2CN(c3cccc(C(F)(F)F)n3)C[C@@H]21 [Example 587, N^2,4-dimethyl-N-{(3aR,4S,6aS)-2-[6-(trifluoromethyl)pyridin-2-yl]octahydrocyclopenta[c]pyrrol-4-yl}-L-leucinamide]",390 nM,16%,–
"O=C(N[C@H]1CC[C@@H]2CN(c3cccc(OC(F)(F)F)c3)C[C@@H]21)[C@@H]1C[C@@H](F)CN1 [Example 627, (4R)-4-fluoro-N-{(3aR,4S,6aS)-2-[3-(trifluoromethoxy)phenyl]octahydrocyclopenta[c]pyrrol-4-yl}-L-prolinamide]",2710 nM,–,54%
"CC(C)(C)[C@H](O)C(=O)N[C@H]1CC[C@@H]2CN(c3cccc(C(F)(F)F)n3)C[C@@H]21 [Example 580, (2S)-2-hydroxy-3,3-dimethyl-N-{(3aR,4S,6aS)-2-[6-(trifluoromethyl)pyridin-2-yl]octahydrocyclopenta[c]pyrrol-4-yl}butanamide]",1880 nM,–,5%
"CN[C@@H](CC(C)C)C(=O)N[C@H]1CC[C@@H]2CN(c3cccc(C(F)F)c3)C[C@@H]21 [Example 729, N-{(3aR,4S,6aS)-2-[3-(difluoromethyl)phenyl]octahydrocyclopenta[c]pyrrol-4-yl}-N^2-methyl-L-leucinamide]",1080 nM,–,85%

# Continued by falling IC50 (human Cav2.2), values first:
IC50 (human Cav2.2),Compound,inhibition in vivo at 30 mg/kg (Sprague Dawley rats [1]),inhibition in vivo at 30 mg/kg (Sprague Dawley rats [2])
4910 nM,"CN[C@@H](CC(C)C)C(=O)N[C@H]1CC[C@@H]2CN(c3ccc(OC(F)(F)F)cc3)C[C@@H]21 [Example 624, N^2-methyl-N-{(3aR,4S,6aS)-2-[4-(trifluoromethoxy)phenyl]octahydrocyclopenta[c]pyrrol-4-yl}-L-leucinamide]",–,85%
4430 nM,"CCC[C@H](NC)C(=O)N[C@H]1CC[C@@H]2CN(c3ccc(C(F)(F)F)cn3)C[C@@H]21 [Example 599, N^2-methyl-N-{(3aR,4S,6aS)-2-[5-(trifluoromethyl)pyridin-2-yl]octahydrocyclopenta[c]pyrrol-4-yl}-L-norvalinamide]",32%,–
3620 nM,"CN[C@@H](CC(C)C)C(=O)N[C@H]1CC[C@@H]2CN(c3ccc(C(F)(F)F)nc3)C[C@@H]21 [Example 735, N^2-methyl-N-{(3aR,4S,6aS)-2-[6-(trifluoromethyl)pyridin-3-yl]octahydrocyclopenta[c]pyrrol-4-yl}-L-leucinamide]",–,60%
2860 nM,"CN[C@@H](CC(C)C)C(=O)N[C@H]1CC[C@@H]2CN(c3ccc(C(F)(F)F)cn3)C[C@@H]21 [Example 600, N^2-methyl-N-{(3aR,4S,6aS)-2-[5-(trifluoromethyl)pyridin-2-yl]octahydrocyclopenta[c]pyrrol-4-yl}-L-leucinamide]",63%,40%
2850 nM,"CN[C@@H](CC(C)C)C(=O)N[C@@H]1CC[C@H]2CN(c3ccc(OC(F)(F)F)cc3)C[C@H]21 [Example 739, N^2-methyl-N-{(3aS,4R,6aR)-2-[4-(trifluoromethoxy)phenyl]octahydrocyclopenta[c]pyrrol-4-yl}-L-leucinamide]",–,63%
2530 nM,"CN[C@@H](CC(C)C)C(=O)N[C@H]1CC[C@@H]2CN(c3nccc(C(F)(F)F)n3)C[C@@H]21 [Example 722, N^2-methyl-N-{(3aR,4S,6aS)-2-[4-(trifluoromethyl)pyrimidin-2-yl]octahydrocyclopenta[c]pyrrol-4-yl}-L-leucinamide]",–,8%
1680 nM,"O=C(N[C@H]1CC[C@@H]2CN(c3cccc(C(F)(F)F)n3)C[C@@H]21)C1(O)CCCC1 [Example 573, 1-hydroxy-N-{(3aR,4S,6aS)-2-[6-(trifluoromethyl)pyridin-2-yl]octahydrocyclopenta[c]pyrrol-4-yl}cyclopentanecarboxamide]",57%,–
1460 nM,"CN[C@@H](CC(C)(C)C)C(=O)N1C[C@H]2CC[C@H](NC(=O)C(c3ccc(F)cc3)c3ccc(F)cc3)[C@H]2C1 [Example 461, N-[(3aR,4S,6aS)-2-(N,4-dimethyl-L-leucyl)octahydrocyclopenta[c]pyrrol-4-yl]-2,2-bis(4-fluorophenyl)acetamide]",43%,–
1420 nM,"CN[C@@H](CC(C)C)C(=O)N[C@H]1CC[C@@H]2CN(c3cccc(OC(F)(F)F)c3)C[C@@H]21 [Example 625, N^2-methyl-N-{(3aR,4S,6aS)-2-[3-(trifluoromethoxy)phenyl]octahydrocyclopenta[c]pyrrol-4-yl}-L-leucinamide]",–,42%
1300 nM,"O=C(N[C@H]1CC[C@@H]2CN(c3cccc(C(F)(F)F)n3)C[C@@H]21)[C@@H]1CCCCN1 [Example 597, (2S)-N-{(3aR,4S,6aS)-2-[6-(trifluoromethyl)pyridin-2-yl]octahydrocyclopenta[c]pyrrol-4-yl}piperidine-2-carboxamide]",54%,–
1300 nM,"CCC[C@H](NC)C(=O)N[C@H]1CC[C@@H]2CN(c3cccc(OC(F)(F)F)c3)C[C@@H]21 [Example 718, N^2-methyl-N-{(3aR,4S,6aS)-2-[3-(trifluoromethoxy)phenyl]octahydrocyclopenta[c]pyrrol-4-yl}-L-norvalinamide]",–,29%
